Literature values in patent US20230364129A1, “TOPICAL COMPOSITIONS” (Prime Performance Research LLC, priority 2022, published 2023).

Tests used:
[1] = carnosine 200 μmol/L; hydroxyl and/or peroxy-type radicals (Drafi, 2010)
[2] = test system: human colorectal cancer cells; settings: by suppressing NF-κB/STAT1 signaling (Lee, 2018)
[3] = test system: NF-κB transcription factor in antigen presenting cells
[4] = test system: hind paw oedema, synovitis and destruction of the articular cartilage; settings: orally administered; several animal studies (Volpi, 2011)

NCCC(=O)N[C@@H](Cc1cnc[nH]1)C(=O)O [carnosine, beta-alanyl-L-histidine]
effect on hyaluronan degradation [1]: protective action
cell cycle arrest and apoptosis [2]: induces cell cycle arrest and apoptosis

Chondroitin sulfate [CS]
activation of the NF-κB transcription factor ([3]; antigen presenting cells (Zhang, 2015)): could activate
TNF-α production ([3]; through the TLR/MyD88 pathway (Zhang, 2015)): induce TNF-α production
hind paw oedema, synovitis and destruction of the articular cartilage [4]: significantly inhibited
